The values below come from patent US10471050B2, “2-OXO-1,2-dihydropyridine-3,5-dicarboxamide compounds as bromodomain inhibitors” (GlaxoSmithKline Intellectual Property (No. 2) Limited, priority 2015, dated 2019).

The first assay has as its target T1, BRD4 BD2 (Homo sapiens, UniProt O60885, Y97A).
T1 construct: BRD4 (1-477) (Y97A) and (Y390A); made in house; host or cells: E. coli (pET15b vector)
As to the kind of experiment: BRD4 BD2 TR-FRET competition assay. In kind it is binding. Conditions: average of N recorded values, read-out: BRD4 BD2 IC50 (average value) (converted). As to the method:
Bromodomain binding was assessed utilising a time resolved fluorescent resonance energy transfer (TR-FRET) competition assay. To enable this approach a known, high affinity, pan-BET interacting small molecule was labelled with Alexa Fluor® 647, which is a far-red-fluorescent dye (Reference Compound X). Reference Compound X acts as a reporter of bromodomain binding and is the acceptor fluorophore component of the TR-FRET pair. Europium chelate, conjugated to an anti-6*His antibody, was utilised as the donor fluorophore in the TR-FRET pair. […] A TR-FRET signal is generated when the donor and acceptor fluorophores are in close proximity, between 20-80 Å, which is enabled in this assay by binding of Reference Compound X to the bromodomain protein.
In order to generate a TR-FRET signal, donor fluorophore is excited by a laser at λ337 nm, which subsequently leads to emission at λ618 nm. If the acceptor fluorophore is in close proximity then energy transfer can occur, which leads to emission of Alexa Fluor® 647 at λ665 nm. In the presence of competitor compound, Reference Compound X can be displaced from binding to the bromodomain. If displacement occurs, the acceptor fluorophore is no longer in proximity to the donor fluorophore, which prevents fluorescent energy transfer and, subsequently, a loss of Alexa Fluor® 647 emission at λ665 nm.
The competition of the compounds of formula (I) with Reference Compound X for binding to the BET family (BRD2, BRD3, BRD4 and BRDT) was assessed using protein truncates spanning both bromodomain 1 (BD1) and bromodomain 2 (BD2). In order to monitor differential binding to either BD1 or BD2, single residue mutations of key tyrosines to alanine were made in the acetyl lysine binding pockets. To validate this approach, a double residue mutant tandem domain protein was produced for each of the BET family members. Utilising a Fluorescence Polarisation approach, binding affinities for each of the single and double mutants for Reference Compound X were determined.
Final purification was completed by Superdex 200 prep grade size exclusion column. Purified protein was stored at −80° C. in 20 mM HEPES pH 7.5 and 100 mM NaCl.
All assay components were dissolved in an assay buffer composing of 50 mM HEPES pH7.4, 50 mM NaCl, 5% Glycerol, 1 mM DTT and 1 mM CHAPS. Reference Compound X was diluted, in assay buffer containing 20 nM single mutant, tandem bromodomain protein, to a concentration equivalent to 2*Kd for this bromodomain. The solution containing bromodomain and Reference Compound X was added to dose response dilutions of test compound or DMSO vehicle (a maximum of 0.5% DMSO is used in this assay) in Greiner 384 well black low volume microtitre plates and subsequently incubated for 30 minutes at room temperature. An equal volume of 3 nM of anti-6*His Europium chelate was added to all wells, followed by a further 30 minute incubation at room temperature. TR-FRET was detected using a Perkin Elmer Multimode plate reader, by exciting the donor fluorophore at λ337 nm and subsequently, after a delay of 50 μsecs, measuring emission of the donor and acceptor fluorophores at λ615 nm and λ665 nm, respectively. In order to control these assays, 16 replicates each of uninhibited (DMSO vehicle) and inhibited (10*IC50 concentrations of Example 11 of WO 2011/054846A1) TR-FRET assays were included on every microtitre plate.
cA four parameter curve fit of the following form was then applied: y=a+((b−a)/(1+(10^x/10^c)^d)
Where ‘a’ is the minimum, ‘b’ is the Hill slope, ‘c’ is the pIC50 and ‘d’ is the maximum.
Background: In TR-FRET formats the signal depends on donor and acceptor labels being close together.
`CCNC(=O)c1cc(C(=O)NC)c(=O)n(Cc2cccc(OCCO)c2)c1` [Example 20, N^5-Ethyl-1-(3-(2-hydroxyethoxy)benzyl)-N^3-methyl-2-oxo-1,2-dihydropyridine-3,5-dicarboxamide]: the IC50 was 251 nM.

With `CCNC(=O)c1cc(C(=O)NC)c(=O)n(Cc2cccc3[nH]ccc23)c1` [Example 25, 1-((1H-Indol-4-yl)methyl)-N^5-ethyl-N^3-methyl-2-oxo-1,2-dihydropyridine-3,5-dicarboxamide], the IC50 was 25.1 nM.

Staying with this assay, now noted: single mutant tandem BRD4, read-out: pIC50 in the BRD4 BD2 assay (converted).
`CNC(=O)c1cc(C(=O)NCCc2cn[nH]c2)cn(Cc2cccc(OC)c2)c1=O` [Example 17, N^5-(2-(1H-pyrazol-4-yl)ethyl)-1-(3-methoxybenzyl)-N^3-methyl-2-oxo-1,2-dihydropyridine-3,5-dicarboxamide]: the IC50 was 100 to 1000 nM.

Turning to `CCNC(=O)c1cc(C(=O)NC)c(=O)n(Cc2cccc(OC)c2)c1` [Example 18, N^5-ethyl-1-(3-methoxybenzyl)-N^3-methyl-2-oxo-1,2-dihydropyridine-3,5-dicarboxamide], the IC50 is 100 to 1000 nM.

For the compound `CNC(=O)c1cc(C(=O)NCCc2c[nH]cn2)cn(Cc2cccc(OCCO)c2)c1=O` [Example 19, N^5-(2-(1H-imidazol-4-yl)ethyl)-1-(3-(2-hydroxyethoxy)benzyl)-N^3-methyl-2-oxo-1,2-dihydropyridine-3,5-dicarboxamide], the IC50 was 100 to 1000 nM.

Consider `CCNC(=O)c1cc(C(=O)NC)c(=O)n(Cc2cccc(OCCO)c2)c1` [Example 20, N^5-Ethyl-1-(3-(2-hydroxyethoxy)benzyl)-N^3-methyl-2-oxo-1,2-dihydropyridine-3,5-dicarboxamide], for which the IC50 is 100 to 1000 nM.

On to `CNC(=O)c1cc(C(=O)NCCc2cn[nH]c2)cn(Cc2cccc(OCCO)c2)c1=O` [Example 21, N^5-(2-(1H-pyrazol-4-yl)ethyl)-1-(3-(2-hydroxyethoxy)benzyl)-N^3-methyl-2-oxo-1,2-dihydropyridine-3,5-dicarboxamide], for which the IC50 was 100 to 1000 nM.

As for `CCNC(=O)c1cc(C(=O)NC)c(=O)n(Cc2cccc(C)c2F)c1` [Example 22, N^5-Ethyl-1-(2-fluoro-3-methylbenzyl)-N^3-methyl-2-oxo-1,2-dihydropyridine-3,5-dicarboxamide], the IC50 was 100 to 1000 nM.

With `CNC(=O)c1cc(C(=O)NCCc2cn[nH]c2)cn(Cc2cccc(C)c2F)c1=O` [Example 23, N^5-(2-(1H-Pyrazol-4-yl)ethyl)-1-(2-fluoro-3-methylbenzyl)-N^3-methyl-2-oxo-1,2-dihydropyridine-3,5-dicarboxamide], the IC50 was 100 to 1000 nM.

As to `CNC(=O)c1cc(C(=O)NCCc2c[nH]cn2)cn(Cc2cccc3[nH]ccc23)c1=O` [Example 24, N^5-(2-(1H-Imidazol-4-yl)ethyl)-1-((1H-indol-4-yl)methyl)-N^3-methyl-2-oxo-1,2-dihydropyridine-3,5-dicarboxamide], the IC50 was at most 100 nM.

As to `CCNC(=O)c1cc(C(=O)NC)c(=O)n(Cc2cccc3[nH]ccc23)c1` [Example 25, 1-((1H-Indol-4-yl)methyl)-N^5-ethyl-N^3-methyl-2-oxo-1,2-dihydropyridine-3,5-dicarboxamide], the IC50 was at most 100 nM.

Consider `CNC(=O)c1cc(C(=O)NCCc2cn[nH]c2)cn(Cc2cccc3[nH]ccc23)c1=O` [Example 26, 1-((1H-Indol-4-yl)methyl)-N^5-(2-(1H-pyrazol-4-yl)ethyl)-N^3-methyl-2-oxo-1,2-dihydropyridine-3,5-dicarboxamide], for which the IC50 was at most 100 nM.

As for `CNC(=O)c1cc(C(=O)NCC(C)OC)cn(Cc2ccccc2)c1=O` (centres unmarked) [Example 29, 1-Benzyl-N^5-(2-methoxypropyl)-N^3-methyl-2-oxo-1,2-dihydropyridine-3,5-dicarboxamide], the IC50 is 1000 to 100000 nM.

With `CNC(=O)c1cc(C(=O)NCC(C)O)cn(Cc2ccccc2)c1=O` (centres unmarked) [Example 31, 1-Benzyl-N^5-(2-hydroxypropyl)-N^3-methyl-2-oxo-1,2-dihydropyridine-3,5-dicarboxamide], the IC50 was 1000 to 100000 nM.

Take `CNC(=O)c1cc(C(=O)NCCCO)cn(Cc2ccccc2)c1=O` [Example 32, 1-Benzyl-N^5-(3-hydroxypropyl)-N^3-methyl-2-oxo-1,2-dihydropyridine-3,5-dicarboxamide]: the IC50 is 100 to 1000 nM.

As for `CNC(=O)c1cc(C(=O)NCCC(C)N(C)C)cn(Cc2ccccc2)c1=O` (centres unmarked) [Example 33, 1-Benzyl-N^5-(3-(dimethylamino)butyl)-N^3-methyl-2-oxo-1,2-dihydropyridine-3,5-dicarboxamide], the IC50 was 100 to 1000 nM.

Consider `CNC(=O)c1cc(C(=O)NCCc2ccncc2)cn(Cc2ccccc2)c1=O` [Example 34, 1-Benyl-N^3-methyl-2-oxo-N^5-(2-(pyridin-4-yl)ethyl)-1,2-dihydropyridine-3,5-dicarboxamide], for which the IC50 is 100 to 1000 nM.

As for `CNC(=O)CCNC(=O)c1cc(C(=O)NC)c(=O)n(Cc2ccccc2)c1` [Example 35, 1-Benzyl-N^3-methyl-N^5-(3-(methylamino)-3-oxopropyl)-2-oxo-1,2-dihydropyridine-3,5-dicarboxamide], the IC50 was 100 to 1000 nM.

Take `CNC(=O)c1cc(C(=O)NCCCC#N)cn(Cc2ccccc2)c1=O` [Example 36, 1-Benzyl-N^5-(3-cyanopropyl)-N^3-methyl-2-oxo-1,2-dihydropyridine-3,5-dicarboxamide]: the IC50 was 100 to 1000 nM.

With `CNC(=O)c1cc(C(=O)NCCC#N)cn(Cc2ccccc2)c1=O` [Example 37, 1-Benzyl-N^5-(2-cyanoethyl)-N^3-methyl-2-oxo-1,2-dihydropyridine-3,5-dicarboxamide], the IC50 was 100 to 1000 nM.

Turning to `CNC(=O)c1cc(C(=O)NCCCN)cn(Cc2ccccc2)c1=O` [Example 38, N^5-(3-Aminopropyl)-1-benzyl-N^3-methyl-2-oxo-1,2-dihydropyridine-3,5-dicarboxamide], the IC50 is 100 to 1000 nM.

On to `CNC(=O)c1cc(C(=O)NCCC(C)O)cn(Cc2ccccc2)c1=O` (centres unmarked) [Example 39, 1-Benzyl-N^5-(3-hydroxybutyl)-N^3-methyl-2-oxo-1,2-dihydropyridine-3,5-dicarboxamide], for which the IC50 was 100 to 1000 nM.

On to `CNC(=O)c1cc(C(=O)NCCc2cccnc2)cn(Cc2ccccc2)c1=O` [Example 40, 1-Benzyl-N^3-methyl-2 oxo-N^5-(2-(pyridin-3-yl)ethyl)-1,2-dihydropyridine-3,5-dicarboxamide], for which the IC50 was 100 to 1000 nM.

For the compound `CNC(=O)c1cc(C(=O)NCCCOC)cn(Cc2ccccc2)c1=O` [Example 42, 1-Benzyl-N^5-(3-methoxypropyl)-N^3-methyl-2-oxo-1,2-dihydropyridine-3,5-dicarboxamide], the IC50 is 100 to 1000 nM.

With `CNC(=O)c1cc(C(=O)NC)c(=O)n(Cc2cccc(C#N)c2)c1` [Example 43, 1-(3-Cyanobenzyl)-N^3,N^5-dimethyl-2-oxo-1,2-dihydropyridine-3,5-dicarboxamide], the IC50 is 1000 to 100000 nM.

`CNC(=O)c1cc(C(=O)NCCS(C)(=O)=O)cn(Cc2ccccc2)c1=O` [Example 45, 1-Benzyl-N^3-methyl-N^5-(2-(methylsulfonyl)ethyl)-2-oxo-1,2-dihydropyridine-3,5-dicarboxamide]: the IC50 is 100 to 1000 nM.

In the case of `CNC(=O)c1cc(C(=O)NCCCN(C)C)cn(Cc2ccccc2)c1=O` [Example 47, 1-Benzyl-N^5-(3-(dimethylamino)propyl)-N^3-methyl-2-oxo-1,2-dihydropyridine-3,5-dicarboxamide], the IC50 was 100 to 1000 nM.

Regarding `CNC(=O)c1cc(C(=O)NCCCS(C)(=O)=O)cn(Cc2ccccc2)c1=O` [Example 48, 1-Benzyl-N^3-methyl-N^5-(3-(methylsulfonyl)propyl)-2-oxo-1,2-dihydropyridine-3,5-dicarboxamide], the IC50 is 100 to 1000 nM.

Turning to `CNC(=O)c1cc(C(=O)NCCc2c[nH]cn2)cn(Cc2cccc(C)c2F)c1=O` [Example 49, N^5-(2-(1H-Imidazol-4-yl)ethyl)-1-(2-fluoro-3-methylbenzyl)-N3-methyl-2-oxo-1,2-dihydropyridine-3,5-dicarboxamide], the IC50 is 100 to 1000 nM.
